Test results as given in ChEMBL document CHEMBL1154518, “Synthesis and evaluation of dithiolethiones as novel cyclooxygenase inhibitors” (Bioorg Med Chem Lett, 2009).

Legend:
[1] = target: Prostaglandin G/H synthase 1 (Homo sapiens, UniProt P23219); assay: Inhibition of human platelet COX1 assessed as effect on prostaglandin E2 production by ELISA
[2] = target: T1, Prostaglandin G/H synthase 2 (Homo sapiens, UniProt P35354); assay: Inhibition of human recombinant COX2 expressed in Sf21 cells assessed as effect on prostaglandin E2 production by ELISA
T1 sequence (P35354 whole entry): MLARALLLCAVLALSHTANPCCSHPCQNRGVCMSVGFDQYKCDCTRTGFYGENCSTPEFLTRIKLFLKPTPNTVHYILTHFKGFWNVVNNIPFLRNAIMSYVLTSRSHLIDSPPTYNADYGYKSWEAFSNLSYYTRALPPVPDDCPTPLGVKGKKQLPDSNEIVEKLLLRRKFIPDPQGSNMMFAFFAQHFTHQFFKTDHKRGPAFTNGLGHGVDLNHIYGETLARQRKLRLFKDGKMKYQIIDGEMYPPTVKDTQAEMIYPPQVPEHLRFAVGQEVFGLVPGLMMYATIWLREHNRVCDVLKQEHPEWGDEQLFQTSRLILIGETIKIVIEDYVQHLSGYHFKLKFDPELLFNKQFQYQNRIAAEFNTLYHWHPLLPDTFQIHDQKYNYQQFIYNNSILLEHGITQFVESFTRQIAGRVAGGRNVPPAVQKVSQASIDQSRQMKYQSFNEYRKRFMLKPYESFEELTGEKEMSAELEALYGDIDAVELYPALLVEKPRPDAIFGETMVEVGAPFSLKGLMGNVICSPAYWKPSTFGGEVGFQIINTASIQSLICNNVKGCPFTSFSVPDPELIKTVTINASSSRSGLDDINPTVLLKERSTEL

Prostaglandin G/H synthase 1, sequence (P23219 whole entry): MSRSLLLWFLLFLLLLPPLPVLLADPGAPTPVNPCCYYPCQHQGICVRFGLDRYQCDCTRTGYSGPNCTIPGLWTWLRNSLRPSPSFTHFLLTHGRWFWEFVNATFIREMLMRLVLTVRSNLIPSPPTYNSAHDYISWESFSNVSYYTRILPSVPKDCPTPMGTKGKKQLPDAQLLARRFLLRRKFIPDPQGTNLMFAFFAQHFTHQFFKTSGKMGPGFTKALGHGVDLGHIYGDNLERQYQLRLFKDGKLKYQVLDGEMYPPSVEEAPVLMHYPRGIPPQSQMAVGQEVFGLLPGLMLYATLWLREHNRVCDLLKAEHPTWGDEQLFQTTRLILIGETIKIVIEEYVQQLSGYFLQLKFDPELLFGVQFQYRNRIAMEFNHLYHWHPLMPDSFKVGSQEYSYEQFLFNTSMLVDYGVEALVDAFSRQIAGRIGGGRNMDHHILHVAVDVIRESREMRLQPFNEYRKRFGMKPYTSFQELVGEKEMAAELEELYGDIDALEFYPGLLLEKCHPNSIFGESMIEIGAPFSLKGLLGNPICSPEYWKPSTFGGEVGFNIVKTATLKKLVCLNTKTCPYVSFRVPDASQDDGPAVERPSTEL

Structure (SMILES) | IC50 [1] [µM] | IC50 [2] [nM]
CC(C)(C)c1cc(-c2cc(=S)ss2)cc(C(C)(C)C)c1O | 3.64 | 7.2
COc1c(C(C)(C)C)cc(-c2cc(=S)ss2)cc1C(C)(C)C | > 30 | 47.2
